With `Cc1cc2nc(S(=O)Cc3ccccc3N)[nH]c2cc1C` (centres undefined), the melting point (usually the temperature of the solid-liquid transition) lay within 179 to 181 °C. As to `CCC1(CC)OC(c2ccc(S(C)(=O)=O)cc2)=C(Br)C1=O`, the melting point lay within 130 to 131 °C. The molecule `COC(=O)c1ccc2sc(Cl)nc2c1C` registered a melting point of 112 °C. The molecule `N#Cc1cncc(I)c1O` came in with a melting point of over 245 °C. `Nc1ccncc1-c1n[nH]c2ccccc12` registered a melting point of 237 to 239 °C. `Fc1cccc(F)c1CN[C@H]1CCCN[C@H]1c1ccccc1` (relative stereo) showed a melting point of over 260 °C. As for `CCn1cc(C(=O)O)c(=O)c2cc(C=NOCC(=O)O)sc21`, the melting point fell in the range of 249 to 250 °C.

`FC(F)(F)c1ccc(-c2cc(C(F)(F)F)n3nccc3n2)cc1` gave a melting point of 110 to 111 °C. Molecule `CC1(C(=O)c2c[nH]c3ncc(-c4ccc(N5CCNCC5)cc4)nc23)CCCCC1` came in with a melting point of 214 to 216 °C.

Turning to `Cc1nc(Sc2ccccn2)sc1CC(=O)O`, the melting point was in the range of 140 to 142 °C.

For the molecule `CCCC(=O)Nc1ccc2[nH]c(C(=O)O)cc2c1`, the melting point was determined as 210 °C. As to `CC1COC(Cn2nc[nH]c2=S)(c2ccc(Oc3ccc(Cl)cc3)cc2Cl)O1` (centres undefined), the melting point was 130 °C. Turning to `CCCCC(=O)Nc1c(C(=O)OC)cc(Cl)cc1[N+](=O)[O-]`, the melting point was 84 to 85 °C. Consider `CCn1ncc2c(ON=C(C)C)c(C(=O)c3ccc(Cl)cc3)cnc21`, for which the melting point fell in the range of 112 to 113 °C. The molecule `C=CC(=O)O[C@H]1CC[C@H](c2ccccc2)CC1` showed a melting point of 67.3 °C. Molecule `CCN1C(=O)C(=CC=C2C=C3N(C)c4ccccc4N3CC2)SC1=S` had a melting point of 275 °C. For the molecule `CCCCc1nn(-c2cc(NC(C)=O)ccc2Cl)c(=O)n1Cc1ccc(-c2cc(CCC)ccc2S(=O)(=O)NC(C)(C)C)cc1F`, the melting point was 125 to 128 °C. With `CC1(C)OC(=O)N2CCN(C(=O)OCc3ccccc3)CC21` (centres undefined), the melting point lay in the range of 86 to 88 °C. In turn, `Nc1c(F)c(N2CCC(n3cncn3)C2)c(F)c2c1c(=O)c(C(=O)O)cn2C1CC1` (centres undefined) returned a melting point of 240 °C. As to `COc1ccc(C(=O)Nc2cnc3c(c2)CN(Cc2ccccc2)CC3)cc1Br`, the melting point was in the range of 214 to 215 °C. `CCOC(=O)c1c[nH]c2c1-c1ncccc1CCC2`: the melting point was 96 to 98 °C.

In turn, `CC(=O)c1c([N+](=O)[O-])[nH]c(-c2ccncc2)c1C` had a melting point of 187 to 188 °C. The result for `N#Cc1cccc2nnsc12` reads 114 to 117 °C. Consider `CC(=S)N[C@@H]1c2cc(C#N)ccc2OC(C)(C)[C@H]1O` (relative stereo), for which the melting point was 176 to 180 °C.

The molecule `Cc1ccc2[nH]cc(C3C(=O)N(C)C(=O)C3c3cn(C)c4ccc(C)cc34)c2c1` (centres undefined) showed a melting point of 103 to 105 °C.

The molecule `CC(C)N(c1cccc2cc(-c3ncc(CCl)s3)[nH]c12)S(=O)(=O)c1cccs1` gave a melting point of 184 to 185 °C. Molecule `COc1ccc(C(Sc2cc(Oc3ccc(Cl)cc3)ccc2N)C(O)C(=O)O)cc1` (centres undefined) showed a melting point of 179 to 181 °C. Molecule `CC(=O)n1c(CCc2ccccc2)cc2c(I)ccnc21` showed a melting point of 109 to 110 °C.

On to `COC(c1ccc(Cl)c2nc3n(c12)CCCN3c1ccc(Cl)cc1Cl)C1CC1` (centres undefined), for which the melting point was 138 to 139 °C.

In turn, `Cc1cc(Br)cnc1CCCCNc1ncc(Cc2ccc(Cl)cc2)c(=O)[nH]1` yielded a melting point of 149 to 150 °C. The result for `CCOC(=O)C(C)(C)CCCCOc1ccc(NC(=O)CCCCCn2ccnc2)cc1` reads 64 to 65 °C; that for `CN1C(=O)C(c2cccc(C#Cc3ccccc3)c2)(c2cc(C=O)n(CCCF)c2)N=C1N` (centres undefined), 85 to 90 °C; that for `O=C(CNc1c(C(=O)O)[nH]c2cc(Cl)cc(Cl)c12)c1ccc(F)cc1`, 259 to 261 °C.

The molecule `N#Cc1cc(NC(=O)c2cc3ccccc3s2)ccc1N1CCN(CCO)CC1` yielded a melting point of 238 to 239 °C. For `O=C(O)c1ccc(C2=NOC(c3cc(Cl)cc(Cl)c3)(C(F)(F)F)C2)cc1F` (centres undefined), the melting point lay in the range of 172 to 174 °C.

`CCOC(=O)Cc1ccc(-c2ccc3oc(C(=O)OCC)c(C)c3c2)cc1` returned a melting point of 110 to 112 °C. The result for `O=C(O)CC1CCCc2c1n(Cc1ccc(Cl)cc1)c1ccc(C(F)(F)F)cc21` (centres undefined) reads 167 to 168 °C; that for `O=c1[nH]c(=S)[nH]cc1-c1ccccc1`, 269 to 271 °C.

On to `CCS(=O)c1c(C#N)nn(-c2c(Cl)cc(C(F)(F)F)cc2Cl)c1NC` (centres undefined), for which the melting point worked out at 142 °C. For the molecule `OCc1cccc2c1[nH]c1c3cc(Br)ccc3oc21`, the melting point was in the range of 218 to 219 °C. Turning to `CP(C)(=O)CNc1cc(Oc2ncc(Cl)cc2Cl)ccc1[N+](=O)[O-]`, the melting point was 153 to 155 °C.

`CCCN(CCCN1CCc2cc(OC)c(OC)cc2CC1=O)CCc1ccc(OC)c(OC)c1` had a melting point of 56 to 70 °C. Molecule `CCOC(=O)n1c2ccccc2c(=O)n1CSc1ccccc1` yielded a melting point of 87 to 88 °C. On to `CC(=NNc1ccc(C2=NNC(=O)CO2)cc1)c1ccncc1`, for which the melting point was found to be 195 °C. With `CCOC(=O)c1cc(-c2ccc(F)cc2)sc1N`, the melting point lay in the range of 98 to 99 °C. As for `CCCn1c(CO)nc(C(C)C)c1Sc1cc(Cl)cc(Cl)c1`, the melting point lay within 104 to 107 °C.

With `O=Cc1cnn2c(-c3cccc(C(F)(F)F)c3)ccnc12`, the melting point was 168 to 170 °C. Turning to `CC(N=[N+]=[N-])C(=O)c1nc(C(C)(C)C)c(O)c(C(C)(C)C)n1` (centres undefined), the melting point is 91 to 92 °C.

Take `CCCCc1nc(Cl)c(C(=O)OC)n1Cc1ccc(-c2ccccc2C(=O)O)cc1`: the melting point is 154 to 155 °C. For `Cc1ccc(-c2cc(F)c(F)cc2-c2ccc(S(N)(=O)=O)cc2)cc1Cl`, the melting point was 139 to 140 °C.

`CC(CC(F)(F)F)C(N)=O` (centres undefined) returned a melting point of 90.5 to 91.5 °C. For `Cc1ccc(S(=O)(=O)N2CCCC2c2ccc(Cl)cc2)cc1` (racemic), the melting point stood at 121 °C.

Take `Cc1cc(CCCCCCCOc2ccc(C(N)=O)cc2)on1`: the melting point fell in the range of 153 to 154 °C. Next, `COC(=O)c1sc2nc(C(C)C)ccc2c1O`: 80 to 81 °C.

In turn, `CCOC(=O)Cn1c(C(=O)NCc2nnc(C)n2-c2sc(CC)cc2C(=O)c2ccccc2Cl)cc2cc(F)ccc21` yielded a melting point of 125 to 127 °C. `CCN(CC)c1ccc(C2(c3ccc(N(C)C)cc3N(C)C)OC(=O)c3c(Cl)c(Cl)c(Cl)c(Cl)c32)c(C)c1` (centres undefined): the melting point was in the range of 236 to 238 °C. `Oc1ccc(/C(=C(\c2ccccc2)C(F)(F)F)c2ccccc2)cc1` returned a melting point of 113 to 120 °C.

Regarding `CCc1cc(-c2ccc(-c3cc(CCC(=O)NCc4cccnc4)[nH]n3)cc2)ccc1O`, the melting point was 210 to 214 °C. The molecule `COC(=O)[C@H]1CC[C@H](N2CCN(c3ccc(C4CCN(C(=O)C(F)(F)F)CC4)cc3)C2=O)CC1` had a melting point of 183 to 185 °C. In the case of `COc1ncccc1-c1cc2cc(C(=O)NCCCN3CCOCC3)ccc2[nH]1`, the melting point was 224 to 225 °C. `Cc1nc2c(C=O)cccn2c1[N+](=O)[O-]` displayed a melting point of 182 to 184 °C. The result for `N#Cc1cccn1-c1cccc(C(=O)N=C(N)N)c1` reads 136 to 138 °C; that for `CCCCN1CCC(N(Cc2ccc(Nc3ccnc4ccccc34)cc2)C(C)=O)CC1`, 85 to 105 °C. Molecule `CCOc1cc2cc(C(=O)OC)c(C(=O)OC)c(-c3ccncc3)c2cc1OCC` gave a melting point of 149 to 150 °C. Next, `C=CCOc1ccccc1-c1ncc(C#N)c(=O)[nH]1`: 162 to 164 °C; `COc1cccc(-c2nc3n(n2)CCc2cc(OC)c(OC)cc2-3)c1`: 132 to 133 °C; `CON1CCC(=Cc2nc(C(C)(C)C)c(O)c(C(C)(C)C)n2)C1=O`: 184 to 186 °C.

Take `CCCCCCCCCCCCCCCCNc1ccc(O)c2c1C(=O)c1c(N)ccc(N)c1C2=O`: the melting point is 174 °C. The molecule `Cc1c(Cl)c(N)cc(Cl)c1Oc1ccc(Cl)cc1Cl` came in with a melting point of 96 to 97 °C.

Molecule `CON(C)C(=O)c1cc(Br)cnc1N1CCCC1` came in with a melting point of 94 to 96 °C.

For the molecule `N#Cc1ccc(-c2ccc(OCc3ccc4ccccc4n3)cc2)c(-c2ccncc2)c1`, the melting point fell in the range of 190 to 193 °C. In turn, `C#CCOc1ccc2c(C)cc(=O)oc2c1C(=O)C=Cc1cccnc1` had a melting point of 203 to 205 °C. As to `Cc1cccc(-c2c3c(cc4ccc5c(c24)OCO5)C(=O)NC3=O)c1`, the melting point was 261 to 264 °C. Take `O=C1CNc2ncc(I)cc2N1Cc1ccccc1`: the melting point was 225 °C.

`CC1Cc2cc(Cl)c(Cl)cc2C(c2ccc([N+](=O)[O-])cc2)O1` (centres undefined) gave a melting point of 189 to 191 °C.

Consider `CCCCc1ccc(-c2ccc(OCC(C)CC)nn2)cc1` (centres undefined), for which the melting point was 94 °C. Next, `c1ccc(Sc2c(CCc3nc4ccccc4o3)[nH]c3ccccc23)cc1`: 192 to 193 °C.

Turning to `Nc1ccc(CCc2cscn2)cc1`, the melting point is 69 to 70 °C. Regarding `CCc1nc2ccc(S(C)(=O)=O)nn2c1S(N)(=O)=O`, the melting point lay in the range of 225 to 226 °C. For `COc1ccc(NC(=O)c2coc(Br)c2)cc1N1CCN(C)CC1`, the melting point lay in the range of 185 to 187 °C.

`CCOC(=O)C1=C(C)NC(c2nccn2C)=NC1c1ccc(F)cc1Cl` (centres undefined) registered a melting point of 166 to 167 °C.

Molecule `COC(=O)Cc1cccc(-c2nc(=O)c3ccccc3s2)n1` displayed a melting point of 180 °C. For `CCNC(=O)C(C)NC(=O)OCc1ccccc1` (centres undefined), the melting point lay in the range of 116 to 117 °C. The result for `CCCCn1c(=O)n(Cc2ccccc2)c(=O)c2[nH]c(Cc3ccc(N4C(=O)CCC4=O)cc3)nc21` reads 208 to 212 °C. `COC(=O)CNc1cc(CS(=O)(=O)C=Cc2c(OC)cc(OC)cc2OC)ccc1OC` returned a melting point of 182 to 185 °C. For the molecule `C#CCNC(NCCSCc1[nH]cnc1C)=C(C#N)C(N)=O`, the melting point was in the range of 88 to 94 °C.

Molecule `CCCc1cc(C(O)(CC)CC)ccc1-c1cc(OCc2ccc(CO)c(CO)c2)ccc1C` registered a melting point of 97 °C.

In turn, `Cc1cccc(-c2[nH]c(C(C)C)nc2-c2ccc(F)c(-c3cc[nH]n3)c2)n1` yielded a melting point of 195 to 198 °C. Consider `COc1cc2c(cc1OC)CN(c1nc(Cl)nc(N3CCc4cc(OC)c(OC)cc4C3)n1)CC2`, for which the melting point was 149 to 151 °C.
